We go through one compound from article PMC5460289, “Identification of New Shikonin Derivatives as Antitumor Agents Targeting STAT3 SH2 Domain” (Scientific Reports, 2017).

Common to all, as to assay type: cell-based, human
One experiment concerns BT-474. The experiment is described as follows: MTT anti-proliferation assay. Particulars: 24 h treatment. Here is the method:
(§1) Initial experiments were performed for evaluation of growth inhibition by the new compounds against six human breast cancer cell lines, including MCF-7 (ER+/PR+, HER-2-), BT474 (ER+/PR+, HER-2+), SKBR-3 (ER-/PR-/HER-2+), MDA-MB-436 (ER-/PR-/HER-2-), MDA-MB-231 (ER-/PR-/HER-2-), MDA-MB-468 (ER-/PR-/HER-2-) and non-tumorigenic MCF-10A cells. After 24 h treatment by the obtained compounds, the inhibition was assessed and the IC50 was summarized. […] Subsequently, the inhibition of STAT3 activation by PMM-172 and Stattic was evaluated using a dual-luciferase assay.
(§2) The anti-proliferative activities of the prepared compounds against MCF-7 (ER+/PR+, HER-2-), BT474 (ER+/PR+, HER-2+), SKBR-3 (ER-/PR-/HER-2+), MDA-MB-436 (ER-/PR-/HER-2-), MDA-MB-231 (ER-/PR-/HER-2-), MDA-MB-468 (ER-/PR-/HER-2-) and non-tumorigenic MCF-10A cell lines were evaluated using a standard (MTT)-based colorimetric assay with some modification. Cell lines were grown to log phase in DMEM supplemented with 10% fetal bovine serum. Cell suspensions were prepared and 100 μL/well dispensed into 96-well plates giving 10^4 cells/well. The subsequent incubation was permitted at 37 °C, 5% CO2 atmosphere for 24 h to allow the cells to reattach. Subsequently, cells were treated with the target compounds at increasing concentrations in the presence of 10% FBS for 24 h. Then, cell viability was assessed by the conventional 3-(4, 5-dimethylthiazol-2-yl)-2, 5-diphenyltetrazolium bromide (MTT) reduction assay and carried out strictly according to the manufacturer instructions. The absorbance (OD570) was read on an ELISA reader (Tecan, Austria). In all experiments, three replicate wells were used for each drug concentration. Each assay was carried out for at least three times.
For orientation: Tetrazolium dyes change colour on reduction, which living cells bring about.

In another experiment the test system is MCF-7. The experiment is described as follows: MTT anti-proliferation assay. Conditions: 24 h treatment. Here is the method: as §1, §2
In another experiment the test system is MDA-MB-231. The experiment is described as follows: MTT anti-proliferation assay. Particulars: 24 h treatment. Here is the method:
as §1, §2

A further experiment concerns MDA-MB-436. The experiment is described as follows: MTT anti-proliferation assay. Particulars: 24 h treatment. The procedure:
as §1, §2

The subject of another experiment is MDA-MB-468. The experiment is described as follows: MTT anti-proliferation assay. Conditions: 24 h treatment. Here is the method: as §1, §2
The next experiment has as its system SKBR-3. The experiment is described as follows: MTT anti-proliferation assay. Conditions: 24 h treatment. The procedure:
as §1, §2

Experiment [1] concerns STAT3-TATA-Luc reporter in MDA-MB-231 cells. The experiment is described as follows: STAT3 dual-luciferase reporter assay. Particulars: MDA-MB-231, 24 h treatment. Here is the method:
Figure 3 MDA-MB-231 cells were transfected with STAT3-TATA-Luc reporter and Renilla luciferase reporter plasmids. After 24 h, cells were treated with indicated concentrations of PMM-172 or Stattic for 24 h and then luciferase intensity was measured. Results are fold change ± SD of three independent experiments, *P < 0.05, **P < 0.01.
Cells were seeded in 24 well plates and transiently transfected together with STAT3 reporter plasmid 4 × M67 pTATA TK-Luc (0.2 μg/per well, Addgene, USA) and Renilla luciferase control reporter plasmid pRL-CMV (0.1 μg/per well, promega, USA), using lipofectamine 2000 (Invitrogen, USA). Then the cells were incubated with complete medium for 24 h with PMM-172 or Stattic. Following the treatment, the cells were harvested in 100 μL of passive lysis buffer (Promega, USA) in each well. A 25 μL aliquot of cell lysate was subjected to a luciferase assay by using the dual-luciferase assay kit (Promega, USA). STAT3 luciferase activity was measured by EnVision Mutilabel Reader (Perkin Elmer, USA). Relative luciferase activity was calculated after the activity of STAT3-dependent firefly luciferase had been normalized to that of Renilla luciferase. All values are expressed as - fold induction relative to basal activity.
For orientation: Reporter assays use an easily measured gene product as a stand-in for the process of interest.

Experiment [2] relates to pSTAT3 (Tyr705) in MDA-MB-231 cells. The experiment is described as follows: Western blot of constitutive STAT3 activation. An excerpt: It has been well recognized that the aberrant activation of STAT3 contributes to malignant transformation and tumorgenesis, and its activity is ultimately dependent upon phosphorylation of residue Y705. […] In this study, the ability of PMM-172 and Stattic inhibiting the constitutive STAT3 activation in MDA-MB-231 cells was investigated. […] We further measured STAT3 phosphorylation at Tyr705 in a time-course experiment.
Figure 6 (A) PMM-172 suppressed constitutive pSTAT3 (Tyr705) in a dose-dependent manner. (B) PMM-172 suppressed constitutive pSTAT3 (Tyr705) in a time-dependent manner. (C) MDA-MB-231 cells were treated with IL-6 (20 ng/mL) or vehicle for 30 min, with or without pretreatment with PMM-172 (2 μM) for 24 h. PMM-172 inhibited IL-6 induced phosphorylation of STAT3. (D) Stattic suppressed constitutive pSTAT3 (Tyr705) in a dose-dependent manner. (E) Stattic suppressed constitutive pSTAT3 (Tyr705) in a time-dependent manner. (F) Tyrosine phosphorylation of two STAT family proteins STAT1 and STAT5 were detected with specific antibodies. […] Data were shown as mean ± SD of three independent experiments. *P < 0.05, **P < 0.01. Cropped blots/gels were used in the figure and the gels had been run under the same experimental conditions; the full-length blots/gels are presented in Supplementary Figure S2.
Cells were rinsed twice with cold PBS and then lysed with RIPA buffer containing a protease inhibitor mixture at 1:100 dilution on ice for 30 min. Insoluble components of cell lysates were removed by centrifugation (4 °C, 12000 rmp, 10 min), and protein concentrations were measured using a Pierce BCA protein assay kit. Proteins were separated by sodium dodecyl sulfate-polyacrylamide gel electrophoresis (SDS-PAGE) and transferred from the gel onto polyvinylidene difluoride (PVDF) membranes. The membranes were blocked with 5% skim milk in TBST buffer for 1 h at room temperature, and then incubated with corresponding primary antibodies diluted in 5% milk-TBST solution at 4 °C with gentle shaking overnight. After washing five times (5 min each), corresponding HRP-conjugated secondary antibodies were incubated for 1 h at room temperature. Immunoreactive bands were visualized using an ECL detection kit (Invitrogen, USA) following the manufacturer’s instruction.
For orientation: In western blotting, separated proteins are transferred to a membrane and probed.

Experiment [3] concerns STAT3 nuclear localization in MDA-MB-231 cells. The experiment is described as follows: STAT3 nuclear localization (cytoplasmic and nuclear extracts, Western blot). Particulars: MDA-MB-231, 24 h. The procedure:
It is known that the dimerization of STAT3 is induced by the phosphorylation at residue Tyr 705, which then leads to its nuclear translocation. Herein, we investigated the effect of PMM-172 and Stattic on STAT3 nuclear translocation. The cytoplasmic and nuclear proteins of treated cells were extracted and the expressions of STAT3 in both fractions were examined.
Figure 7 MDA-MB-231 cells were treated with indicated concentrations of PMM-172 or Stattic for 24 h, the expression levels of STAT3 in cytoplasmic and nuclear extracts were examined and relative expression levels were analyzed by Image J software. β-actin and Lamin B1 served as markers of cytoplasmic and nuclear extractions, respectively. […] (C) MCF-10A cells were treated with the indicated concentrations of PMM-172 for 24 h. PMM-172 had no effect on the level of the pSTAT3 level in MCF-10A cells. […] Data were shown as mean ± SD from three independent experiments, **P < 0.01. Cropped blots/gels were used in the figure and the gels had been run under the same experimental conditions; the full-length blots/gels are presented in Supplementary Figure S3.
To examine the relative proportion of STAT3 in the cytoplasm and nucleus, cytoplasmic and nuclear extracts were prepared. In brief, control and treated cells were collected and suspended in a buffer containing 10 mM HEPES (pH 7.9), 10 mM KCl, 0.1 mM EDTA (pH 8.0), 0.1 mM EGTA (pH 7.0), 1 mM DTT, 0.5 mM PMSF, 2 μg/mL leupeptin, 2 μg/mL aprotonin, 0.5 mg/mL benzamidine. After 15 min, NP-40 (0.25%) was added, and cell lysate was vortexed for 10 s and centrifuged at 10000 rmp at 4 °C for 1 min. […] The protein content in the nuclear and cytoplasmic fractions was determined using a Pierce BCA protein assay kit.
Cells were rinsed twice with cold PBS and then lysed with RIPA buffer containing a protease inhibitor mixture at 1:100 dilution on ice for 30 min. Insoluble components of cell lysates were removed by centrifugation (4 °C, 12000 rmp, 10 min), and protein concentrations were measured using a Pierce BCA protein assay kit. […]

As for `O=[N+]([O-])c1ccc2c(c1)S(=O)(=O)C=C2` [Stattic, reference compound], the concentration for half-maximal inhibition (IC50) – broadly, the concentration that inhibits the measured activity by half – with BT-474 is 5.11 ± 0.57 µM; with MCF-7, 5.85 ± 0.72 µM; in the experiment with MDA-MB-231, 3.18 ± 0.33 µM; in the experiment with MDA-MB-436, 3.76 ± 0.5 µM; in the experiment on MDA-MB-468, 3.54 ± 0.42 µM; in the experiment on SKBR-3, 3.39 ± 0.56 µM. Also, the STAT3 luciferase activity result in [1] is given as “only a slight advantage over PMM-172”. Also, in [2], the STAT3 expression result was “had no effect on STAT3 expression”. Also, the “STAT3 phosphorylation at Tyr705, time-course” value in experiment [2] is listed as “reduced with the longer treatment”. For the same compound, in experiment [2], the “level of Y705-phosphorylated STAT3 (constitutive), dose series” value is “could reduce the level of Y705-phosphorylated STAT3 in MDA-MB-231 cells in a dose-dependent manner”. The “level of STAT3 in the nuclear fraction” value in experiment [3] was “suppressed STAT3 nuclear localization”.
